Source: ChEMBL document CHEMBL3507680, “University of Dundee, Gates Library screen for HepG2 cell viability”

Assay: Human HepG2 cell viability assay in 384 well format
Assay type: toxicity, cell-based
Set-up: dose 125 nL, time 70.5 hour; cytotoxicity at 70.5 h: concentration not given beside the values
Settings: HepG2 cells, read-out: Inhibition

SMILES: c1ccc(OCCN2CCC(c3nnc(-c4cccnc4)o3)CC2)cc1
- cytotoxicity at 70.5 h: -2.58%

SMILES: Cc1ccc([C@@H]2CN(S(=O)(=O)c3cccs3)C[C@H]2N(C)C)cc1
- cytotoxicity at 70.5 h: -2.64%

SMILES: CN(C)c1ccc(C(O)CNC(=O)NCCCc2ccccc2)cc1 (centres undefined)
- cytotoxicity at 70.5 h: -9.74%

SMILES: Cc1cccc2c1OCCC2NCc1c(C)nn(C)c1N(C)C (centres undefined)
- cytotoxicity at 70.5 h: 35%

SMILES: Cc1ccsc1CCNC(=O)C1(Oc2cccnc2C)CCNCC1
- cytotoxicity at 70.5 h: -10.2%

SMILES: O=C1CC2(CCCC2)CC(=O)N1Cc1nc2ncccn2n1
- cytotoxicity at 70.5 h: 1.37%

SMILES: COCCN1CCC(NC(=O)NCC2(c3cccc(F)c3)CC2)C1 (centres undefined)
- cytotoxicity at 70.5 h: -8.45%

SMILES: CSCC[C@@H](CO)Nc1ccc(-c2nc(-c3ccccc3C)no2)cn1
- cytotoxicity at 70.5 h: -6.4%

SMILES: NC(=O)C1(c2cnccn2)CCCN1Cc1ccc(Cl)cc1 (centres undefined)
- cytotoxicity at 70.5 h: -9.51%

SMILES: Cc1ccc2c(c1)C(=O)CC1(CCN(Cc3ccccc3)CC1)O2
- cytotoxicity at 70.5 h: -2.96%

SMILES: COc1ccc2c(c1)OCC(Cc1ccnc(N)n1)C2 (centres undefined)
- cytotoxicity at 70.5 h: 8.07%

SMILES: CC(=O)N1CCO[C@@H]2CN(C(=O)c3cc(C)oc3C)CC[C@@H]2C1
- cytotoxicity at 70.5 h: 13%

SMILES: Cc1cc(C)n(C2CN(c3ncnc4[nH]ccc34)C2)n1
- cytotoxicity at 70.5 h: -3.24%

SMILES: Cc1cccc(=O)n1CCCNc1nc(N(C)C)nc2c1CCNCC2
- cytotoxicity at 70.5 h: -3.24%

SMILES: CCCS(=O)(=O)N1CCc2onc(CNc3ncccn3)c2C1
- cytotoxicity at 70.5 h: 6.05%

SMILES: Cc1nc(CN2C[C@@H]3COC[C@]3(COCC(=O)N(C)C)C2)cs1
- cytotoxicity at 70.5 h: -5.31%

SMILES: Cc1nc(CN2CCCN(CCOc3ccc(C#N)cc3)CC2)no1
- cytotoxicity at 70.5 h: -0.262%

SMILES: Cc1ccc(C(CNCc2c[nH]nc2C)N(C)C)cc1 (centres undefined)
- cytotoxicity at 70.5 h: 11.2%

SMILES: CN(CC(=O)Nc1ccccc1C(=O)NC1CC1)Cc1ccccc1Cl
- cytotoxicity at 70.5 h: 0.515%

SMILES: CCC(C)NC(=O)c1ccn(COc2ccccc2Cl)n1 (centres undefined)
- cytotoxicity at 70.5 h: -1.06%

SMILES: O=C1CC2(CCCNC2)C(=O)N1Cc1ccc(F)cc1 (centres undefined)
- cytotoxicity at 70.5 h: -10.9%

SMILES: Cc1ccc(CN2CC3(CCN(C(=O)c4cscn4)C3)C2)o1
- cytotoxicity at 70.5 h: -7.14%

SMILES: O=C1NCCCCC1NC(=O)C1(c2cccc(C(F)(F)F)c2)CC1 (centres undefined)
- cytotoxicity at 70.5 h: 0.452%

SMILES: Cn1nc(CNS(=O)(=O)Cc2ccccc2F)c2c1CCCC2
- cytotoxicity at 70.5 h: -5.77%

SMILES: COc1ccccc1CN1C(=O)O[C@@H]2CN(c3nc(C)cnc3C)C[C@@H]21
- cytotoxicity at 70.5 h: -3.32%

SMILES: Cc1nccc([C@@H]2C[C@@H]3CCN(S(C)(=O)=O)C[C@H]3O2)n1
- cytotoxicity at 70.5 h: -10%

SMILES: COc1ccc(Br)cc1CCC(=O)N1CCC(O)CC1
- cytotoxicity at 70.5 h: -4.79%

SMILES: COCCCN(C)C(=O)Cn1cccc(OC)c1=O
- cytotoxicity at 70.5 h: -10.6%

SMILES: O=C(NCCNc1ccccn1)NC1CCOC2(CCCCC2)C1 (centres undefined)
- cytotoxicity at 70.5 h: 3.54%

SMILES: O=C([C@H]1CCCO1)N1CCC2(CC1)Cc1ccccc1CNC2=O
- cytotoxicity at 70.5 h: 3.51%

SMILES: COc1ccc(OCC(=O)NS(=O)(=O)c2cc(F)ccc2F)cc1
- cytotoxicity at 70.5 h: 20.8%

SMILES: O=C(Cn1ccnc1)N1C[C@@H]2CC[C@H](Oc3cccc(F)c3)[C@@H]2C1
- cytotoxicity at 70.5 h: -6.97%

SMILES: CCN(CC)CCn1ccnc1-c1cccc(O)c1
- cytotoxicity at 70.5 h: 1.22%

SMILES: COCCN1C[C@H]2CC[C@@]3(N=C(C)N(CC4CC4)C3=O)[C@H]2C1
- cytotoxicity at 70.5 h: -2.1%

SMILES: CC(C)C(=O)N1CCC2(CC1)[C@@H]1CN(C(=O)N(C)C)C[C@@H]1C(=O)N2C
- cytotoxicity at 70.5 h: 28.3%

SMILES: N[C@@H]1CCC[C@@H](Oc2ccc(F)cc2Oc2ccccc2)[C@@H]1O
- cytotoxicity at 70.5 h: 20.8%

SMILES: CCCS(=O)(=O)N1CCC2(CC1)CN(CC1CCOC1)c1ccccc12 (centres undefined)
- cytotoxicity at 70.5 h: 3.95%

SMILES: CCCn1ncnc1C(C)NC(=O)CC1CCN(C(C)C)CC1 (centres undefined)
- cytotoxicity at 70.5 h: -4.86%

SMILES: COc1cc(CN(C)C(=O)NCc2cccc3c2OCO3)ccc1SC
- cytotoxicity at 70.5 h: -6.35%

SMILES: CC(C)=CCN1CCN(C(C)c2cccnc2)CC1 (centres undefined)
- cytotoxicity at 70.5 h: -1.42%

SMILES: CCC1c2ccsc2CCN1C(=O)NCc1cc[nH]n1 (centres undefined)
- cytotoxicity at 70.5 h: -1.24%

SMILES: COCCCC1CCCCN1Cc1cn2cc(C)ccc2n1 (centres undefined)
- cytotoxicity at 70.5 h: -25.8%

SMILES: Cc1nn(C)cc1-c1cc(C(=O)NCC(C)(C)c2ccccc2F)n[nH]1
- cytotoxicity at 70.5 h: 17.9%

SMILES: Cc1nc(C2CCCN(C(=O)CCn3ccccc3=O)C2)no1 (centres undefined)
- cytotoxicity at 70.5 h: -3.24%
